4 compounds from patent EP0468497B1, “Peptide-antagonists of bombesin/GRP” (MERRELL PHARMACEUTICALS INC., priority 1990, dated 1992) can be followed below.

This assay concerns the target T1, bombesin receptor (Mus musculus, UniProt P21729).
T1 construct: The pancreata from one or more mice were pooled, minced, and homogenized; from tissue; host or cells: mouse pancreas
In words: Affinity for the bombesin receptor by competition at the receptor for iodinated GRP (125I-GRP), pancreas membranes. Also noted: species or system mice. Conditions: competition with 125I-GRP, 90 minutes at room temperature, read-out: Bombesin Receptor Binding (Example 5). The method, then: The pancreata from one or more mice were pooled, minced, and homogenized in 50 mM HEPES (pH 7.4) containing 120 mM NaCl and 5 mM KCl at 4°C and centrifuged at 37,500 X g for 15 minutes. The pellet was resuspended in 50 mM HEPES (pH 7.4) containing 10 mM EDTA and 300 mM KCl and incubated for 30 minutes at 4°C. The suspension was centrifuged as above and the pellet was washed two times in 50 mM HEPES (pH 7.4) containing protease inhibitors (10 µM phenylmethylsulfonyl fluoride, 1 µM thiorphan, 40 µg/ml bacitracin, 10mM iodoacetic acid and 4 µg/ml leupeptin), and again centrifuged. The tissue was then resuspended in incubation buffer (1ml per 4 mg pancreas) and incubated for 15 minutes at room temperature, then 250 µl was added to each assay tube to commence the assay. The assay tubes contained incubation buffer consisting of 50 mM HEPES (pH 7.4), 0.5% BSA, protease inhibitors, 2 mM MnCl2, 1 µM somatostatin, and concentrations of ^125I-GRP and peptides as needed in a final volume of 500 µl. The assay was allowed to proceed to equilibrium for 90 minutes at room temperature. After this time, the contents of each tube was rapidly filtered over Whatman GF/B filters presoaked in 0.1% polyethyleneimine and the filters were rapidly washed three times with ice-cold 50 mM HEPES (pH 7.4). Filter-bound radioactivity was quantitated in a gamma counter. Competition of iodinated GRP binding by test compounds or standards was expressed as a percentage of ^125I-GRP binding in the absence of peptide. Affinity and maximal binding were calculated with Ligand (Biosoft, Cambridge, UK).

Non-standard residues stand in square brackets, D forms with d. Residues, ends and D or L forms follow the SMILES beside them. *: point of attachment. Palmitoyl = CCCCCCCCCCCCCCCC(=O)*; Lauroyl = CCCCCCCCCCCC(=O)*; Octanoyl = CCCCCCCC(=O)* Bounds are passed on as bounds.

T1 sequence (P21729 whole entry): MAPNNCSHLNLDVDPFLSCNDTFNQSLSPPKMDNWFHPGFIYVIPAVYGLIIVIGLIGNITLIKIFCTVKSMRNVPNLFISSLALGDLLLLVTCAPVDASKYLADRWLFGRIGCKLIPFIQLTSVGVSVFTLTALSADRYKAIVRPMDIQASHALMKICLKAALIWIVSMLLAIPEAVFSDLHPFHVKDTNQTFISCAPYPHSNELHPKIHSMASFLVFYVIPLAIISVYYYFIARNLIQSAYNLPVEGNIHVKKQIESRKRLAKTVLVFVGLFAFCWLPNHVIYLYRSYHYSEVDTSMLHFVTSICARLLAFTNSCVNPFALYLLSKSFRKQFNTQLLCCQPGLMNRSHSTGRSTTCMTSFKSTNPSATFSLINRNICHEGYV

With `CCCCCCCC(=O)N[C@@H](CCC(N)=O)C(=O)N[C@@H](Cc1c[nH]c2ccccc12)C(=O)N[C@@H](C)C(=O)N[C@H](C(=O)N[C@H](C)C(=O)N[C@@H](Cc1c[nH]cn1)C(=O)N[C@@H](CC(C)C)C(N)=O)C(C)C` [Example 1, N-(n-Octanoyl)-Gln-Trp-Ala-Val-ala-His-Leu-NH2] (Octanoyl-QWAV[dA]HL-NH2), the Kd was at most 50 nM.

`CCCCCCCCCCCC(=O)N[C@@H](CCC(N)=O)C(=O)N[C@@H](Cc1c[nH]c2ccccc12)C(=O)N[C@@H](C)C(=O)N[C@H](C(=O)N[C@H](C)C(=O)N[C@@H](Cc1c[nH]cn1)C(=O)N[C@@H](CC(C)C)C(N)=O)C(C)C` [Example 2, N-(Lauroyl)-Gln-Trp-Ala-Val-ala-His-Leu-NH2] (Lauroyl-QWAV[dA]HL-NH2): the Kd is at most 500 nM.

Take `CCCCCCCCCCCCCCCC(=O)N[C@@H](CCC(N)=O)C(=O)N[C@@H](Cc1c[nH]c2ccccc12)C(=O)N[C@@H](C)C(=O)N[C@H](C(=O)N[C@H](C)C(=O)N[C@@H](Cc1c[nH]cn1)C(=O)N[C@@H](CC(C)C)C(N)=O)C(C)C` [Example 3, N-(Palmitoyl)-Gln-Trp-Ala-Val-ala-His-Leu-NH2] (Palmitoyl-QWAV[dA]HL-NH2): the Kd is at most 500 nM.

In the case of `CCCCCCCC(=O)N[C@@H](CCC(N)=O)C(=O)N[C@@H](Cc1c[nH]c2ccccc12)C(=O)N[C@@H](C)C(=O)N[C@H](C(=O)N[C@H](C)C(=O)N[C@@H](Cc1c[nH]cn1)C(N)=O)C(C)C` [Example 4, N-(n-Octanoyl)-Gln-Trp-Ala-Val-ala-His-NH2] (Octanoyl-QWAV[dA]H-NH2), the Kd was at most 50 nM.
